Columns and labels:
[1] = target: T1, human recombinant adrenergic α1D receptor (Homo sapiens, UniProt P25100); experiment: Adrenergic alpha1D radioligand binding ([3H]Prozosin); details: compound at 1 μM; read-out: Adrenergic (1 μM) α1D, percent inhibition of specific binding
T1 construct: expressed in transfected cells; host or cells: HEK-293 cells
T1 sequence (P25100 1-572): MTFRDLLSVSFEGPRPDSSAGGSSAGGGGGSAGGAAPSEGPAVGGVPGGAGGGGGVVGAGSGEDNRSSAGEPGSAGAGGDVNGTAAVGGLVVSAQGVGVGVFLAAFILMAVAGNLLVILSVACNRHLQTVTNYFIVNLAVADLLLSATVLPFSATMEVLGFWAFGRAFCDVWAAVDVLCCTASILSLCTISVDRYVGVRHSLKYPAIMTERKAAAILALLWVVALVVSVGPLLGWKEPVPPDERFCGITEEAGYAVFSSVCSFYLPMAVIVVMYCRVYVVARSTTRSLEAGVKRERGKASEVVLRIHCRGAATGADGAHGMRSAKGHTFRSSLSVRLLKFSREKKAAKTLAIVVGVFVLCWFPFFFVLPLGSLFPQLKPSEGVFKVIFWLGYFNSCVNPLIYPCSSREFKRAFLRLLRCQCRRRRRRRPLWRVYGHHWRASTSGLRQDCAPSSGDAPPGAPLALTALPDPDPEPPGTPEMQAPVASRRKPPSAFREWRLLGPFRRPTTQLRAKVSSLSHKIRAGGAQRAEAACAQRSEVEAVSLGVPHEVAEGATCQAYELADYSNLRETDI
Description: To evaluate in radioligand binding assays the activity of compounds of the invention, human recombinant adrenergic α1D receptor expressed in human embryonic kidney (HEK-293) cells (Kenny, B. A. et al. Br. J. Pharmacol. 115(6):981, 1995) in a 50 mM Tris-HCl buffer, pH 7.4, was used. Compounds of invention were incubated with 0.6 nM [^3H]Prozosin for 60 min. at 25° C. Non-specific binding was estimated in the presence of 10 μM phentolamine. Receptor proteins were filtered and washed, the filters were then counted to determine [^3H]Prozosin specifically bound. Compounds were screened at 1 μM or lower, using 1% DMSO as vehicle. Biochemical assay results are presented as the percent inhibition of specific binding in Table 5.

[2] = target: T2, human recombinant dopamine D2L receptor (Homo sapiens, UniProt P14416); experiment: Dopamine D2L radioligand binding ([3H]Spiperone); details: compound at 1 μM; read-out: Dopamine (1 μM) D2L, percent inhibition of specific binding
T2 construct: expressed in transfected cells; host or cells: CHO cells
T2 sequence (P14416 whole entry): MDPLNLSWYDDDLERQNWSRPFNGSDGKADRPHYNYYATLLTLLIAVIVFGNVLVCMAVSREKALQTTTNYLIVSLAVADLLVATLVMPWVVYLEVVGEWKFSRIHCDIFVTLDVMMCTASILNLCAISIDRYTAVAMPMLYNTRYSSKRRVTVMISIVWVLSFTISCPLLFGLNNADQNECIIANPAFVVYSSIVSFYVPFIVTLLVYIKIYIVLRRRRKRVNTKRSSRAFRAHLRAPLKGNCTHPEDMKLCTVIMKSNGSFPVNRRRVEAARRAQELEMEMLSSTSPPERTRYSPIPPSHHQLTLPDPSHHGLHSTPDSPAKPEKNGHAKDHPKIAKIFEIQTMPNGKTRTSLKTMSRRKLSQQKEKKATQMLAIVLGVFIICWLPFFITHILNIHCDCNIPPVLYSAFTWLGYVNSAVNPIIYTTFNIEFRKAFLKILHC
Method in brief: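 Human recombinant D2L receptor from CHO cells, in Tris-HCl buffer pH 7.4 with ascorbic acid, BSA and 150 mM NaCl; compounds at 1 μM or lower (1% DMSO) incubated with 0.16 nM [3H]spiperone, 120 min, 25° C. Nonspecific binding by 10 μM haloperidol; filter counting; % inhibition of specific binding.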

[3] = target: T3, human recombinant adrenergic α2A receptor (Homo sapiens, UniProt P08913); experiment: Adrenergic alpha2A radioligand binding ([3H]MK-912); details: compound at 1 μM; read-out: Adrenergic (1 μM) α2A, percent inhibition of specific binding
T3 construct: expressed in transfected cells; host or cells: insect Sf9 cells
T3 sequence (P08913 1-465): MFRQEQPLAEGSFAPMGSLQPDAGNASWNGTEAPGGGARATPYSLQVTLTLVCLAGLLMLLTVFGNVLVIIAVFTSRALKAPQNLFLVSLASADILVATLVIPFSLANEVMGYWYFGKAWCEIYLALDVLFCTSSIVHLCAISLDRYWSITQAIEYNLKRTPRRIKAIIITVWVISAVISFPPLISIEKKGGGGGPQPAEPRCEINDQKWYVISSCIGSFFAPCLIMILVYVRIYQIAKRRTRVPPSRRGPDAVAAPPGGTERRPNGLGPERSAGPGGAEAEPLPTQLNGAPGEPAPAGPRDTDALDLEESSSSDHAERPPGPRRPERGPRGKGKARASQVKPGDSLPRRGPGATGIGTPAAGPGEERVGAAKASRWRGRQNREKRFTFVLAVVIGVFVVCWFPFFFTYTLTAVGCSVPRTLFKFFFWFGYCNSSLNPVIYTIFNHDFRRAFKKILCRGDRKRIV
Description: To evaluate in radioligand binding assays the activity of compounds of the invention, human recombinant adrenergic α2A receptor expressed in insect Sf9 cells (Uhlen S et al. J Pharmacol Exp Ther. 271:1558, 1994) in a modified Tris-HCl buffer (50 mM Tris-HCl, pH 7.4, 12.5 mM MgCl2, 2 mM EDTA) was used. Compounds of invention were incubated with 1 nM [^3H]MK-912 for 60 min. at 25° C. MK912 is (2S-trans)-1,3,4,5′,6,6′,7,12b-octahydro-1′,3′-dimethyl-spiro[2 h-benzofuro [2,3-a]quinolizine-2,4′ (1′H)-pyrimidin]-2′ (3′H)-one hydrochloride Non-specific binding was estimated in the presence of 10 μM WB-4101 (2-(2,6-Dimethoxyphenoxyethyl)aminomethyl-1,4-benzodioxane hydrochloride). Receptor proteins were filtered and washed, the filters were then counted to determine [^3H]MK-912 specifically bound. Compounds were screened at 1 μM or lower, using 1% DMSO as vehicle. Biochemical assay results are presented as the percent inhibition of specific binding in Table 5.

[4] = target: T4, human recombinant histamine H2 receptor (Homo sapiens, UniProt P25021); experiment: Histamine H2 radioligand binding ([125I]Aminopotentidine); details: compound at 1 μM; read-out: Histamine Binding (1 μM) H2, percent inhibition of specific binding
T4 construct: expressed in transfected cells; host or cells: CHO-K1 cells
T4 sequence (P25021 whole entry): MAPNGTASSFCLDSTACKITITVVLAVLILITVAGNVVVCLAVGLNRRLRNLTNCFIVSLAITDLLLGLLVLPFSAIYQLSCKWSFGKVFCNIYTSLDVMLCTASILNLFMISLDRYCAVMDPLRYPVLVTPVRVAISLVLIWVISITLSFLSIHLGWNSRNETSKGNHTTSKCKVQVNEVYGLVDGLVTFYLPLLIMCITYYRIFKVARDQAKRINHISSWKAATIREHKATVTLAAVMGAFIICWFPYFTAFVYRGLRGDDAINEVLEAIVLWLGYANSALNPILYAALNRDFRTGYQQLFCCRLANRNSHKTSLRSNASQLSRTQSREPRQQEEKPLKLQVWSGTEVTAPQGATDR
Method in brief: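 Membranes from CHO-K1 cells expressing recombinant human H2 receptor, in 50 mM phosphate buffer pH 7.4, incubated with 0.1 nM [125I]aminopotentidine for 120 min at 25 °C; nonspecific binding defined with 3 μM tiotidine.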

Work on `CN1CCc2c(n(CC(=O)Nc3ccccc3)c3ccc(Cl)cc23)CC1` [Compound No. 73, 2-(9-chloro-2,3,4,5-tetrahydro-3-methylazepino[4,5-b]indol-6(1H)-yl)-N-phenylacetamide] yielded an inhibition at 1 µM [1] of 1%, an inhibition at 1 µM [2] of -14% and an inhibition at 1 µM [3] of 28%. For the same compound, the inhibition at 1 µM [4] was -5%.

Compound `COc1ccc(C(O)Cn2c3c(c4cc(Cl)ccc42)CCN(C)CC3)cc1` (centres unmarked) [Compound No. 47, 2-(9-chloro-2,3,4,5-tetrahydro-3-methylazepino[4,5-b]indol-6(1H)-yl)-1-(4-methoxyphenyl)ethanol] has an inhibition at 1 µM [1] of 97%, an inhibition at 1 µM [2] of 45% and an inhibition at 1 µM [3] of 97%. The inhibition at 1 µM [4] was 70%.

For `CN1CCc2c(n(CCc3ccc(Cl)cc3)c3ccc(Cl)cc23)CC1` [Compound No. 30, 6-(4-chlorophenethyl)-9-chloro-1,2,3,4,5,6-hexahydro-3-methylazepino[4,5-b]indole], the inhibition at 1 µM [1] was 89%, the inhibition at 1 µM [2] was 53% and the inhibition at 1 µM [3] was 99%. It also gave an inhibition at 1 µM [4] of 97%.

`Cc1ccc2c(c1)c1c(n2CC(=O)NC(C)C)CCN(C)CC1` [Compound No. 54, 2-(2,3,4,5-tetrahydro-3,9-dimethylazepino[4,5-b]indol-6(1H)-yl)-N-isopropylacetamide] was tested, and the inhibition at 1 µM [1] was -1%, the inhibition at 1 µM [2] was 6% and the inhibition at 1 µM [3] was 5%. For the same compound, the inhibition at 1 µM [4] was -3%.

Compound `CN1CCc2c(n(CCc3cncc(Cl)c3)c3ccc(Cl)cc23)CC1` [Compound No. 10, 9-chloro-6-(2-(5-chloropyridin-3-yl)ethyl)-1,2,3,4,5,6-hexahydro-3-methylazepino[4,5-b]indole] has an inhibition at 1 µM [1] of 89%, an inhibition at 1 µM [2] of 35% and an inhibition at 1 µM [3] of 96%. It also gave an inhibition at 1 µM [4] of 78%.

Work on `Cc1ccc(C(O)Cn2c3c(c4cc(Cl)ccc42)CCN(C)CC3)cn1` (centres unmarked) [Compound No. 7, 2-(9-chloro-2,3,4,5-tetrahydro-3-methylazepino[4,5-b]indol-6(1H)-yl)-1-(6-methylpyridin-3-yl)ethanol] yielded an inhibition at 1 µM [1] of 69%, an inhibition at 1 µM [2] of 15% and an inhibition at 1 µM [3] of 84%. The inhibition at 1 µM [4] was 52%.

Compound `C/C(=C\n1c2c(c3cc(C)ccc31)CCN(C)CC2)c1ccc(F)cc1` [Compound No. 34, 6-((E)-2-(4-fluorophenyl)prop-1-enyl)-1,2,3,4,5,6-hexahydro-3,9-dimethylazepino[4,5-b]indole] has an inhibition at 1 µM [1] of 100%, an inhibition at 1 µM [2] of 90% and an inhibition at 1 µM [3] of 94%. The inhibition at 1 µM [4] was 103%.

Work on `CN1CCc2c(n(CC(=O)N3CCCC3)c3ccc(Cl)cc23)CC1` [Compound No. 53, 2-(9-chloro-2,3,4,5-tetrahydro-3-methylazepino[4,5-b]indol-6(1H)-yl)-1-(pyrrolidin-1-yl)ethanone] yielded an inhibition at 1 µM [1] of 13%, an inhibition at 1 µM [2] of 2% and an inhibition at 1 µM [3] of 1%. It also gave an inhibition at 1 µM [4] of 3%.

In the case of `C/C(=C\n1c2c(c3cc(Cl)ccc31)CCN(C)CC2)c1ccc(Cl)cc1Cl` [Compound No. 239, (E)-9-chloro-6-(2-(2,4-dichlorophenyl)prop-1-enyl)-3-methyl-1,2,3,4,5,6-hexahydroazepino[4,5-b]indole], the inhibition at 1 µM [1] is reported as 28%, the inhibition at 1 µM [2] is reported as 9% and the inhibition at 1 µM [3] is reported as 93%. For the same compound, the inhibition at 1 µM [4] was 89%.

`COc1ccc(C(O)Cn2c3c(c4cc(Cl)ccc42)CCN(C)CC3)c(F)c1` (centres unmarked) [Compound No. 49, 2-(9-chloro-2,3,4,5-tetrahydro-3-methylazepino[4,5-b]indol-6(1H)-yl)-1-(2-fluoro-4-methoxyphenyl) ethanol] gave an inhibition at 1 µM [1] of 71%, an inhibition at 1 µM [2] of 32% and an inhibition at 1 µM [3] of 96%. It also gave an inhibition at 1 µM [4] of 65%.

Work on `Cc1ccc2c(c1)c1c(n2CC(O)c2ccccc2F)CCN(C)CC1` (centres unmarked) [Compound No. 41, 1-(2-fluorophenyl)-2-(2,3,4,5-tetrahydro-3,9-dimethylazepino[4,5-b]indol-6(1H)-yl)ethanol] yielded an inhibition at 1 µM [1] of 75%, an inhibition at 1 µM [2] of 34% and an inhibition at 1 µM [3] of 95%. For the same compound, the inhibition at 1 µM [4] was 52%.

Work on `CN1CCc2c(n(CC(O)c3ccc(Cl)cc3)c3ccc(Cl)cc23)CC1` (centres unmarked) [Compound No. 16, 2-(9-chloro-2,3,4,5-tetrahydro-3-methylazepino[4,5-b]indol-6(1H)-yl)-1-(4-chlorophenyl)ethanol] yielded an inhibition at 1 µM [1] of 85%, an inhibition at 1 µM [2] of 37% and an inhibition at 1 µM [3] of 105%. For the same compound, the inhibition at 1 µM [4] was 92%.

`CN1CCc2c(n(CC(C)(O)c3ccc(F)cc3)c3ccc(Cl)cc23)CC1` (centres unmarked) [Compound No. 13, 1-(9-chloro-2,3,4,5-tetrahydro-3-methylazepino[4,5-b]indol-6(1H)-yl)-2-(4-fluorophenyl)propan-2-ol] showed an inhibition at 1 µM [1] of 76%, an inhibition at 1 µM [2] of 38% and an inhibition at 1 µM [3] of 94%. For the same compound, the inhibition at 1 µM [4] was 92%.

`CN1CCc2c(n(CC(=O)N3CCNCC3)c3ccc(Cl)cc23)CC1` [Compound No. 72, 2-(9-chloro-2,3,4,5-tetrahydro-3-methylazepino[4,5-b]indol-6(1H)-yl)-1-(piperazin-1-yl)ethanone] was tested, and the inhibition at 1 µM [1] was 17%, the inhibition at 1 µM [2] was -18% and the inhibition at 1 µM [3] was -6%. The inhibition at 1 µM [4] was 0%.

In the case of `CN1CCc2c(n(CC(O)c3ccc(F)cc3)c3ccc(Cl)cc23)CC1` (centres unmarked) [Compound No. 51, 2-(9-chloro-2,3,4,5-tetrahydro-3-methylazepino[4,5-b]indol-6(1H)-yl)-1-(4-fluorophenyl) ethanol], the inhibition at 1 µM [1] is reported as 85%, the inhibition at 1 µM [2] is reported as 30% and the inhibition at 1 µM [3] is reported as 98%. For the same compound, the inhibition at 1 µM [4] was 70%.

`CN1CCc2c(n(CC(=O)OCc3ccccc3)c3ccc(Cl)cc23)CC1` [Compound No. 75, Benzyl-2-(9-chloro-2,3,4,5-tetrahydro-3-methylazepino[4,5-b]indol-6(1H)-yl)acetate] showed an inhibition at 1 µM [1] of 7%, an inhibition at 1 µM [2] of 2% and an inhibition at 1 µM [3] of 7%. The inhibition at 1 µM [4] was -4%.

`C/C(=C\n1c2c(c3cc(Cl)ccc31)CCN(C)CC2)c1ccc(Cl)cc1` [Compound No. 36, 9-chloro-6-((E)-2-(4-chlorophenyl)prop-1-enyl)-1,2,3,4,5,6-hexahydro-3-methylazepino[4,5-b]indole] showed an inhibition at 1 µM [1] of 95%, an inhibition at 1 µM [2] of 34% and an inhibition at 1 µM [3] of 96%. It also gave an inhibition at 1 µM [4] of 104%.

— patent publication US9481676B2, “Azepino[4,5-B]indoles and methods of use” (Medivation Technologies, Inc., priority 2008, dated 2016)
